From US20040171594A1, “Use of bis-acid(5-androsten-17-one-3beta-hydroxyl)diester for manufacture pharmaceuticals” (priority 2001, published 2004) come the findings set out here.

Marks after values point to notes of the source that are not given here.

The subject of experiment [1] is arrhythmia of rats induced by Aconitine. The experiment is described as follows: Arrhythmia of rats induced by Aconitine. It counts as in vivo, SD rats. As to conditions: {}. On the procedure:
Male SD rats, weighing (218.3±20.0) g, were anaesthetized with urethane 1.2 g/kg body weight by abdominal injection, continuously monitored by II lead electrocardiogram (ECG) by MS302 Biological Signal Record and Analysis System. After ten minutes of being administered drug or 0.5% CMC-Na through sublingual vein, rats were injected with Aconitine in external jugular vein at 2.5 μg/min speed, recorded the dose at appearance time of ventricular premature beat (VP), ventricular tachycardia (VT), ventricular fibrillation (VF) and cardiac arrest (CA), respectively. And t test was performed. […] The effect of compounds Ca Do E at 0.5 mg/kg dose were remarkably better than that of Prasterone and Arniodarone.

For experiment [2], the system named is arrhythmia of guinea pigs induced by Ouabain. The experiment is described as follows: Arrhythmia of guinea pigs induced by Ouabain. It counts as in vivo. The following applies: drug 3 mg/kg 10 min before Ouabain 3 μg/min, n=8. The method, then:
Chose 40 male guinea pigs, weighing (288.8±38.3) g, randomly divided into six groups, anaesthetized with urethane 1.2 g/kg by abdominal injection. Ten minutes after administered drug or 0.5% CMC-Na, the guinea pigs were injected Ouabain into external jugular vein at 3 μg/min speed, recorded ECG respectively, measured the dose at appearance time of VP, VT, VF and CA, and performed t test.

The test system of experiment [3] is arrhythmia of rats induced by BaCl2. The experiment is described as follows: Arrhythmia of rats induced by BaCl2. It counts as in vivo, SD rats. As to conditions: BaCl2 4 mg/kg, within 60 min, n=10. On the procedure: 50 male SD rats, weighing (236.7±13.7)g, were anaesthetized with 10% chloral hadrate 0.3 g/kg intraperitoneally, recorded ECG with intubating of external jugular vein administering drug. As soon as injected with BaCl2 4 mg/kg, rats usually emerged VP and VT quickly and developed to be the steady and typical double-aspect arrhythmia. After immediately injected with drug or 0.5% CMC-Na into vein, recorded the time of recovering and maintaining sinus rhythm within 60 min as standard, and compared the function between five groups. […] Time of maintaining sinus rhythm was longer and acted more quickly than that of Amiodarone group.

The subject of experiment [4] is osteoporosis model of rats induced by Retinoic acid. The experiment is described as follows: Osteoporosis model of rats induced by Retinoic acid. The following applies: Retinoic acid 70 mg/kg, specimen orally 30 days (dose not given), right thighbone, n=8. It counts as in vivo, SD rats. From the text:
After continuously administering specimen for 30 days, killed rats and took right thighbone of rat.
Took same part tissue of right thighbone, routinely decalcified, enveloped with olefin, and dyed with HE. Observed with ordinary optics microscope, import all imagines into computer with A/D conversion of pickup camera, via dealing with image analysis software obtained index of guide line as follows: relative bone volume, indicating percentage that bone trabecula accounted for medullary cavity, 1.25×10×4 times; average width of bone trabecula, 1.25×10×10 times; amount of cell per area in bone trabecula, gathering same area image (640×480) of bone trabecula with image analysis software, calculating amount of bone cell in corresponding area, 1.25×10×40 times; Average length of bone cell lacuna, 1.25×10×40; Average width of bone cell lacuna, 1.25×10×40. The above five indexes of static state guide-line were all observed for ten eyeshots, calculating their average value.

Experiment [5] concerns myocardium injury model of rats induced by ISO. The experiment is described as follows: Myocardium injury (myocardial ischemia) model of rats induced by ISO. It counts as in vivo, SD rats. As to conditions: drug 0.76 mg/kg, n=8; for Σ ST: rats, ISO s.c. The method, then:
SD rats were measured ECG by chest leads before experiment, abandoned those of abnormal or arrhythmia at T wave, ST sect. […] They were divided into four groups according to Table 4, eight rats in each group. As dose of Table 4, tested compounds or 0.5% CMC-Na solution with same volume were administered through duodenum for 30 minutes, rats were anaesthetized with aether. After ECG was recorded, Isoproterenol (ISO) was administered by subcutaneous injection from the back, recorded ECG again after 30 minutes. After specimen was intragastricly granted for 24 hours and 48 hours, every group was administered simples again and recorded ECG again in terms of the methods stated above. After 72 hours, bleeding from the ophthalmic venous plexus and separated blood serum through centrifugation. Killed the rats, scissor the tip of the heart to prepare 10% myocardial tissue homogenate with 4° C. physiological saline as standby.
Measured each rat's value of ST before first administering ISO. And after first, second and third subcutaneous injection for 30 minutes, calculated mv mean value of ΣST as guide line of myocardium injury and performed t test.
The changes of MDA LDH and CK in serum were measured with agent kits.
The changes of MDA, LDH and CK in serum and myocardial tissue homogenate were measured with agent kits.

Experiment [6] has as its system acute renal failure of mice induced by endotoxin. The experiment is described as follows: Acute renal failure model induced by endotoxin. As to conditions: drug 10 mg/kg i.p., endotoxin 0.06 g/kg, after five hours, n=10; for GSH-Px: mice kidney homogenate; for BUN / Cr: mice serum. It counts as in vivo, NIH mice. On the procedure: After five hours, blood of the mice was collected by removing eyes, assayed Blood Urea Nitrogen (BUN) and Creatinine (Cr) concentration of serum. One kidney of each […] was taken out and made 100 mL/L homogenate, assayed activity of Glutathione Peroxidase (GSH-Px) enzyme.

Experiment [7] concerns cerebral ischemia-reperfusion injury of mice. The experiment is described as follows: Memory step-through test after cerebral ischemia-reperfusion injury. It counts as in vivo, NIH mice. The following applies: 4.5 mg/kg intragastric once a day for 10 days, n=10. The method, then: After weighed, NIH mice were anaesthetized with Penbotarbital 60 mg/kg, then performed operation. Fixed at supine position, the skin in the middle of the deck was dissected about 7 mm. Separated common carotid artery of two sides of neck, surrounded with the thread of No “0”. Common carotid artery of two sides was chipped with artery clip for 2 minutes to induce cerebral ischemia. In the end of ischemia treatment, artery clip was loosed and blood perfusion was restored, rest for five minutes, repeated twice as that. After blocking blood flow of carotid, sutured incision. Recorded trail bloodletting, bloodletting quantity was no more than 10% of total blood quantity. After operation, […] were administered with proper physiological saline through intraperitoneal injection in order to supple capacity of blood. After pseudo operation group was anaesthetized, carotid of two sides was separated but blood flow was not blocked, without being bloodletting too.
In experiment appearance of body temperature lowering and righting reflex disappearing was as positive guide-line of ischemia, discarding those without typical guide line of ischemia. In the procedure of ischemia or after operation, some of animals would be dead. […] According to the dose of Table 7, animals were administered with medicine by intragastric intubation once a day, and continue administered drug for 10 days. After 10 days, memory test was performed.

In experiment [8] the test system is thymus and spleen of mice. The experiment is described as follows: Indexes of thymus and spleen of mice injected with cyclophosphamide. It counts as in vivo, NIH mice. As to conditions: cyclophosphamide 60 mg/kg i.p., drug 10 mg/kg intragastric for 30 days, n=10. On the procedure:
Chose 90 healthy NIH mice, weighing (18˜22)g, equal amount of male and female. Every mouse was injected with cyclophos phamide (60 mg/kg, intraperitoneally). […] Administered specimen through intragastric intubation in terms of the dose in Table 8. Continuously administered orally specimen for 30 days, all mice fasted on the 30th day, but were supplied with water. On the 31th day, mice of every group were killed. Weighed their body, thymus and spleen, calculated index of thymus and spleen, compared the difference among each group.

Setting [9] is: myocardial tissue homogenate of rats with ISO myocardium injury.
Setting [10] is: serum of rats with ISO myocardium injury, after 72 hours.

For `CCCCc1oc2ccccc2c1C(=O)c1cc(I)c(OCCN(CC)CC)c(I)c1` [Amiodarone, reference compound], in experiment [1], the “Dose of Aconitine required to induce CA” value worked out at 0.176 ± 0.038 mg/kg, the “Dose of Aconitine required to induce VF” value was 0.1412 ± 0.0282 mg/kg, the “Dose of Aconitine required to induce VP” value was determined as 0.09 ± 0.0257 mg/kg and the “Dose of Aconitine required to induce VT” value is 0.1088 ± 0.0254 mg/kg. Besides, in experiment [2], the “Dose of Oua at appearance of CA” value was 0.2836 ± 0.0439 mg/kg, the “Dose of Oua at appearance of VF” value stood at 0.2476 ± 0.0461 mg/kg, the “Dose of Oua at appearance of VP” value came out at 0.1184 ± 0.0335 mg/kg and the “Dose of Oua at appearance of VT” value came to 0.175 ± 0.0411 mg/kg. For the same compound, in experiment [3] (drug 3 mg/kg into vein), the “time of maintaining sinus rhythm” value came out at 40.156 ± 5.124 min and the “time of storing sinus rhythm” value came out at 15.859 ± 5.126 min.
As for “butanediol-disulphonic acid-(5-androsten-17-one-3β-ol)-diester [Compound I]”, in experiment [4], the “Amount of cell per area in bone trabecula” value was found to be 31.84 ± 3.94, the “Average width of bone trabecula” value was found to be 61.37 ± 4.71 μm and the Relative bone volume is reported as 29.84 ± 3.56 %. In experiment [5] (setting [9]), the “Activity of CK” value amounted to 214.27 ± 40.62 U/L, the “Activity of LDH” value came out at 159.82 ± 31.69 U/L and the MDA was 115.02 ± 10.34 nmol/g. In addition, the “Σ ST” value in experiment [5] (30 min) worked out at 0.49 ± 0.12 mv. Besides, the “Σ ST” value in experiment [5] (24 h) was found to be 0.54 ± 0.12 mv. Besides, in experiment [5] (48 h), the “Σ ST” value is 0.50 ± 0.06 mv. Moreover, in experiment [5] (72 h), the “Σ ST” value is 0.54 ± 0.08 mv. Moreover, in experiment [5] (setting [10]), the “Activity of CK” value is on record as 242.14 ± 22.72 U/L, the “Activity of LDH” value is 233.35 ± 18.46 U/L and the MDA is recorded as 24.64 ± 2.53 nmol/mL. Further, in experiment [6], the GSH-Px turned out to be 37.6 ± 15.1 nU · L^−1, the BUN was 344.4 ± 40.6*** 10 mg · L^−1 and the Cr is 34.41 ± 9.65*** 10 mg · L^−1. In experiment [7], the “Latency of dark cabin, Memory” value worked out at 46.5 ± 13.8 s; the “Latency of dark cabin, Study” value was found to be 25.7 ± 14.8 s; the Number of error amounted to 3.1 ± 1.7 n. Besides, in experiment [3] (drug 0.5 mg/kg into vein), the “time of maintaining sinus rhythm” value worked out at 45.478 ± 5.271 min and the “time of storing sinus rhythm” value amounted to 6.752 ± 4.132 min. Further, in experiment [8], the Index of spleen is given as 69.60 ± 16.10 mg/10 g body weight and the Index of thymus was 16.44 ± 3.25 mg/10 g body weight.
“pentanediol-disulphonic acid-(5-androsten-17-one-3β-ol)-diester [Compound J]”: in experiment [4], the “Amount of cell per area in bone trabecula” value was 29.84 ± 3.16, the “Average width of bone trabecula” value was found to be 67.84 ± 4.68 μm and the Relative bone volume is on record as 37.55 ± 3.26 %. Besides, in experiment [5] (setting [9]), the “Activity of CK” value was 268.28 ± 42.59 U/L, the “Activity of LDH” value is listed as 197.45 ± 26.88 U/L and the MDA was 95.67 ± 15.67 nmol/g. Also, the “Σ ST” value in experiment [5] (30 min) turned out to be 0.54 ± 0.12 mv. The “Σ ST” value in experiment [5] (24 h) is 0.52 ± 0.07 mv. The “Σ ST” value in experiment [5] (48 h) is on record as 0.56 ± 0.07 mv. For the same compound, the “Σ ST” value in experiment [5] (72 h) stood at 0.54 ± 0.08 mv. Moreover, in experiment [5] (setting [10]), the “Activity of CK” value is reported as 239.40 ± 16.15 U/L, the “Activity of LDH” value worked out at 257.05 ± 31.30 U/L and the MDA amounted to 26.47 ± 3.25 nmol/mL. For the same compound, in experiment [6], the GSH-Px was found to be 32.2 ± 13.1 nU · L^−1, the BUN is 337.6 ± 32.8*** 10 mg · L^−1 and the Cr is recorded as 37.60 ± 8.44*** 10 mg · L^−1. For the same compound, in experiment [7], the “Latency of dark cabin, Memory” value was 52.0 ± 17.2 s; the “Latency of dark cabin, Study” value was 30.8 ± 15.0 s; the Number of error was 3.2 ± 1.6 n. In experiment [3] (drug 1.5 mg/kg into vein), the “time of maintaining sinus rhythm” value was determined as 51.762 ± 6.275 min and the “time of storing sinus rhythm” value is 3.584 ± 2.471 min. In addition, in experiment [3] (drug 2.5 mg/kg into vein), the “time of maintaining sinus rhythm” value is on record as 59.248 ± 1.527 min and the “time of storing sinus rhythm” value is 0.845 ± 1.529 min. In experiment [8], the Index of spleen was determined as 61.29 ± 15.34 mg/10 g body weight and the Index of thymus stood at 17.24 ± 3.34 mg/10 g body weight.
